According to ChEMBL document CHEMBL1649220, “New variant of CTX-M-type extended-spectrum beta-lactamases, CTX-M-71, with a Gly238Cys substitution in a Klebsiella pneumoniae isolate from Bulgaria” (2009):
Converted amounts (≈) assume the structure as drawn.

Columns and labels:
Format in all cases: functional
[1] = system: Escherichia coli; assay: Antimicrobial activity against Escherichia coli DH5[alpha] harboring pBC-CTX-M-15 plasmid by agar dilution method
[2] = system: Escherichia coli; assay: Antimicrobial activity against Escherichia coli DH5[alpha] harboring pBC-CTX-M-71 plasmid by agar dilution method
[3] = system: Escherichia coli; assay: Antimicrobial activity against Escherichia coli DH5[alpha] by agar dilution method
[4] = system: Escherichia coli; assay: Antimicrobial activity against Escherichia coli K-12 by agar dilution method
[5] = system: Klebsiella pneumoniae; assay: Antimicrobial activity against Klebsiella pneumoniae AH24-270 expressing blaCTX-M-71 gene by agar dilution method
[6] = system: Escherichia coli; assay: Antimicrobial activity against Escherichia coli K-12 transconjugant harboring blaCTX-M-71 gene by agar dilution method
[7] = system: Klebsiella pneumoniae; assay: Antimicrobial activity against Klebsiella pneumoniae AH24-270 expressing blaCTX-M-71 gene by agar dilution method in presence of beta-lactamase inhibitor clavulanic acid
[8] = system: Escherichia coli; assay: Antimicrobial activity against Escherichia coli K-12 by agar dilution method in presence of beta-lactamase inhibitor clavulanic acid
[9] = system: Escherichia coli; assay: Antimicrobial activity against Escherichia coli DH5alpha harboring pBC-CTX-M-71 plasmid by agar dilution method in presence of beta-lactamase inhibitor clavulanic acid; conditions: DH5[alpha]
[10] = system: Escherichia coli; assay: Antimicrobial activity against Escherichia coli K-12 transconjugant harboring blaCTX-M-71 gene by agar dilution method in presence of beta-lactamase inhibitor clavulanic acid
[11] = system: Escherichia coli; assay: Antimicrobial activity against Escherichia coli DH5alpha harboring pBC-CTX-M-15 plasmid by agar dilution method in presence of beta-lactamase inhibitor clavulanic acid; conditions: DH5[alpha]
[12] = system: Escherichia coli; assay: Antimicrobial activity against Escherichia coli DH5alpha by agar dilution method in presence of beta-lactamase inhibitor clavulanic acid; conditions: DH5[alpha]
[13] = system: Escherichia coli; assay: Antimicrobial activity against Escherichia coli K-12 transconjugant harboring blaCTX-M-71 gene by agar dilution method in presence of beta-lactamase inhibitor Tazobactam
[14] = system: Escherichia coli; assay: Antimicrobial activity against Escherichia coli K-12 by agar dilution method in presence of beta-lactamase inhibitor Tazobactam
[15] = system: Escherichia coli; assay: Antimicrobial activity against Escherichia coli DH5alpha harboring pBC-CTX-M-15 plasmid by agar dilution method in presence of beta-lactamase inhibitor Tazobactam; conditions: DH5[alpha]
[16] = system: Escherichia coli; assay: Antimicrobial activity against Escherichia coli DH5alpha by agar dilution method in presence of beta-lactamase inhibitor Tazobactam; conditions: DH5[alpha]
[17] = system: Escherichia coli; assay: Antimicrobial activity against Escherichia coli DH5alpha harboring pBC-CTX-M-71 plasmid by agar dilution method in presence of beta-lactamase inhibitor Tazobactam; conditions: DH5[alpha]
[18] = system: Klebsiella pneumoniae; assay: Antimicrobial activity against Klebsiella pneumoniae AH24-270 expressing blaCTX-M-71 gene by agar dilution method in presence of beta-lactamase inhibitor Tazobactam

Compound | MIC [1] | MIC [2] | MIC [3] | MIC [4] | MIC [5] | MIC [6] | MIC [7] | MIC [8] | MIC [9] | MIC [10] | MIC [11] | MIC [12] | MIC [13] | MIC [14] | MIC [15] | MIC [16] | MIC [17] | MIC [18]
CO/N=C(\C(=O)N[C@@H]1C(=O)N2C(C(=O)[O-])=C(C[N+]3(C)CCCC3)CS[C@H]12)c1csc(N)n1 [CEFEPIME] | 16 µg/mL (≈ 33.3 µM) | 4 µg/mL (≈ 8.32 µM) | 0.016 µg/mL (≈ 0.0333 µM) | 0.016 µg/mL (≈ 0.0333 µM) | 128 µg/mL (≈ 266 µM) |  |  |  |  |  |  |  |  |  |  |  |  | 
C[C@@H](O)[C@H]1C(=O)N2C(C(=O)O)=C(S[C@@H]3CN[C@H](C(=O)Nc4cccc(C(=O)O)c4)C3)[C@H](C)[C@H]12 [ERTAPENEM] | 0.03 µg/mL (≈ 0.0631 µM) | 0.016 µg/mL (≈ 0.0336 µM) | 0.016 µg/mL (≈ 0.0336 µM) | 0.008 µg/mL (≈ 0.0168 µM) | 3 µg/mL (≈ 6.31 µM) | 0.016 µg/mL (≈ 0.0336 µM) | 8 µg/mL |  |  |  |  |  |  |  |  |  |  | 
CC(C)(O/N=C(\C(=O)N[C@@H]1C(=O)N2C(C(=O)[O-])=C(C[n+]3ccccc3)CS[C@H]12)c1csc(N)n1)C(=O)O [CEFTAZIDIME] | 64 µg/mL (≈ 117 µM) | 8 µg/mL (≈ 14.6 µM) | 0.13 µg/mL (≈ 0.238 µM) | 0.06 µg/mL (≈ 0.11 µM) | 16 µg/mL (≈ 29.3 µM) | 4 µg/mL (≈ 7.32 µM) | 4 µg/mL | 0.06 µg/mL | 0.25 µg/mL | 0.25 µg/mL | 0.25 µg/mL | 0.06 µg/mL |  |  |  |  |  | 
C[C@H]1[C@H](NC(=O)/C(=N\OC(C)(C)C(=O)O)c2csc(N)n2)C(=O)N1S(=O)(=O)O [AZTREONAM] | 64 µg/mL (≈ 147 µM) | 8 µg/mL (≈ 18.4 µM) |  |  | 128 µg/mL (≈ 294 µM) | 8 µg/mL (≈ 18.4 µM) |  |  |  |  |  |  |  |  |  |  |  | 
C[C@@H](O)[C@H]1C(=O)N2C(C(=O)O)=C(SCCNC=N)C[C@H]12 [IMIPENEM ANHYDROUS] |  |  |  |  | 1 µg/mL (≈ 3.34 µM) |  | 0.5 µg/mL | 0.13 µg/mL | 0.25 µg/mL |  |  |  |  |  |  |  |  | 
CO/N=C(\C(=O)N[C@@H]1C(=O)N2C(C(=O)O)=C(COC(N)=O)CS[C@H]12)c1ccco1 [CEFUROXIME] | > 512 µg/mL | 512 µg/mL (≈ 1210 µM) | 4 µg/mL (≈ 9.43 µM) | 2 µg/mL (≈ 4.71 µM) | > 512 µg/mL | 256 µg/mL (≈ 603 µM) |  |  |  |  |  |  |  |  |  |  |  | 
CC1(C)S[C@@H]2[C@H](NC(=O)[C@H](N)c3ccc(O)cc3)C(=O)N2[C@H]1C(=O)O [AMOXICILLIN] | > 512 µg/mL | > 512 µg/mL | 4 µg/mL (≈ 10.9 µM) | 2 µg/mL (≈ 5.47 µM) | > 512 µg/mL | > 512 µg/mL | > 512 µg/mL | 2 µg/mL | 8 µg/mL | 64 µg/mL | 8 µg/mL | 2 µg/mL |  |  |  |  |  | 
C[C@@H](O)[C@H]1C(=O)N2C(C(=O)O)=C([C@H]3CCCO3)S[C@H]12 [FAROPENEM] | 1 µg/mL (≈ 3.5 µM) | 0.5 µg/mL (≈ 1.75 µM) | 0.5 µg/mL (≈ 1.75 µM) | 0.5 µg/mL (≈ 1.75 µM) | 4 µg/mL (≈ 14 µM) | 1 µg/mL (≈ 3.5 µM) | 4 µg/mL | 0.5 µg/mL | 0.5 µg/mL | 0.5 µg/mL | 0.5 µg/mL | 0.25 µg/mL |  |  |  |  |  | 
C[C@@H](O)[C@H]1C(=O)N2C(C(=O)O)=C(S[C@@H]3CN[C@H](C(=O)N(C)C)C3)[C@H](C)[C@H]12 [MEROPENEM] | 0.03 µg/mL (≈ 0.0782 µM) | 0.03 µg/mL (≈ 0.0782 µM) | 0.03 µg/mL (≈ 0.0782 µM) | 0.03 µg/mL (≈ 0.0782 µM) | 4 µg/mL (≈ 10.4 µM) | 0.03 µg/mL (≈ 0.0782 µM) | 0.5 µg/mL | 0.016 µg/mL | 0.03 µg/mL | 0.016 µg/mL | 0.03 µg/mL | 0.03 µg/mL |  |  |  |  |  | 
CO/N=C(\C(=O)N[C@@H]1C(=O)N2C(C(=O)O)=C(COC(C)=O)CS[C@H]12)c1csc(N)n1 [CEFOTAXIME] | > 256 µg/mL | 16 µg/mL (≈ 35.1 µM) | 0.03 µg/mL (≈ 0.0659 µM) | 0.03 µg/mL (≈ 0.0659 µM) | 64 µg/mL (≈ 141 µM) | 4 µg/mL (≈ 8.78 µM) | 2 µg/mL | 0.016 µg/mL | 0.03 µg/mL | 0.06 µg/mL | 0.06 µg/mL | 0.016 µg/mL |  |  |  |  |  | 
CCN1CCN(C(=O)N[C@@H](C(=O)N[C@@H]2C(=O)N3[C@@H]2SC(C)(C)[C@@H]3C(=O)O)c2ccccc2)C(=O)C1=O [PIPERACILLIN] | > 256 µg/mL | 256 µg/mL (≈ 495 µM) | 2 µg/mL (≈ 3.86 µM) | 1 µg/mL (≈ 1.93 µM) | > 256 µg/mL | > 256 µg/mL |  |  |  |  |  |  | 16 µg/mL | 1 µg/mL | 2 µg/mL | 1 µg/mL | 2 µg/mL | > 256 µg/mL
CO[C@@]1(NC(=O)Cc2cccs2)C(=O)N2C(C(=O)O)=C(COC(N)=O)CS[C@@H]21 [CEFOXITIN] | 4 µg/mL (≈ 9.36 µM) | 4 µg/mL (≈ 9.36 µM) | 4 µg/mL (≈ 9.36 µM) | 2 µg/mL (≈ 4.68 µM) | 64 µg/mL (≈ 150 µM) | 2 µg/mL (≈ 4.68 µM) |  |  |  |  |  |  |  |  |  |  |  | 
